ChEMBL document CHEMBL1201862, “PubChem BioAssay data set” (2004)
“And” between values parts separate entries of the source, which are not always exact repeats. Equal values may be shown once.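 Step 1: Grow cells in 96-well plates. Step 2: Expose to compound for 48 hours at 5 concentrations. Step 3: Interpolate endpoints linearly; if unreached, use highest concentration. The concentration for 50% growth inhibition is given as GI50.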 The source made the active and inactive calls. Cut-off read from the data, not from the text of the source: active = GI50 up to about 1.1 µM and inactive = higher.

Assays:
Assay in all cases: NCI tumour cell line growth inhibition, 48 h
[1] = test system: UO-31
[2] = test system: SF-268
[3] = test system: SN12C
[4] = test system: OVCAR-3
[5] = test system: NCI-H23
[6] = test system: CCRF-CEM
[7] = test system: ACHN
[8] = test system: PC-3
[9] = test system: MCF7
[10] = test system: A498
[11] = test system: CAKI-1
[12] = test system: MDA-MB-435
[13] = test system: HCT-116
[14] = test system: K562
[15] = test system: RPMI-8226
[16] = test system: SK-MEL-28
[17] = test system: SR
[18] = test system: T47D
[19] = test system: IGROV-1
[20] = test system: NCI-H522

SMILES | GI50 [1] | GI50 [2] | GI50 [3] | GI50 [4] | GI50 [5] | GI50 [6] | GI50 [7] | GI50 [8] | GI50 [9] | GI50 [10] | GI50 [11] | GI50 [12] | GI50 [13] | GI50 [14] | GI50 [15] | GI50 [16] | GI50 [17] | GI50 [18] | GI50 [19] | GI50 [20]
CCOC(=O)C(=CNC(=S)N/N=C1\C(=O)Nc2ccccc21)C(=O)OCC | 29 µM (inactive) | 43.8 µM (inactive) | > 100 µM (inactive) | 46.2 µM (inactive) | > 100 µM (inactive) | 41.9 µM (inactive) | > 100 µM (inactive) | > 100 µM (inactive) | 92.9 µM (inactive) | 41.9 µM (inactive) | 21.1 µM (inactive) | > 100 µM (inactive) | > 100 µM (inactive) | > 100 µM (inactive) | > 100 µM (inactive) | > 100 µM (inactive) | 69.3 µM (inactive) | > 100 µM (inactive) |  | 
Cc1cc(C)n(-c2nc(C)c(CCO)c(=O)[nH]2)n1 | > 100 µM (inactive) | > 100 µM (inactive) | > 100 µM (inactive) | > 100 µM (inactive) | > 100 µM (inactive) | > 100 µM (inactive) | > 100 µM (inactive) | > 100 µM (inactive) | > 100 µM (inactive) |  | > 10 µM (inactive) | > 100 µM (inactive) | > 100 µM (inactive) | > 100 µM (inactive) | > 100 µM (inactive) | > 100 µM (inactive) | > 100 µM (inactive) | > 100 µM (inactive) | > 100 µM (inactive) | > 100 µM (inactive)
O=S(=O)(Nc1nc2ccccc2nc1Nc1cccc2ccccc12)c1ccccc1 | 2.43 µM (inactive) | 26.5 µM (inactive) | > 100 µM (inactive) | 4.67 µM (inactive) | 5.53 µM (inactive) |  | 8 µM (inactive) | 6.46 µM (inactive) | > 100 µM (inactive) |  | 31.8 µM (inactive) | > 100 µM (inactive) | 17.7 µM (inactive) | > 100 µM (inactive) | 2.73 µM (inactive) | 25.9 µM (inactive) | > 100 µM (inactive) | 5.26 µM (inactive) | 5.9 µM (inactive) | 
COc1ccccc1C1c2cc3c(cc2OC(N2CCOCC2)C1C)OCO3 (centres undefined) | 15.9 µM (inactive) | 16.1 µM (inactive) | 17.7 µM (inactive) | 13 µM (inactive) | 19.8 µM (inactive) | 13.2 µM (inactive) | 26.2 µM (inactive) | 21.5 µM (inactive) | 23.6 µM (inactive) |  |  | 8.04 µM (inactive) | 12.4 µM (inactive) | 7.85 µM (inactive) | 16.2 µM (inactive) | 15.6 µM (inactive) | 15.8 µM (inactive) | 13.2 µM (inactive) | 27.2 µM (inactive) | 12.7 µM (inactive)
CN(C)CCNc1nc(-c2ccc3ccccc3c2)nc2[nH]cnc12 | 3.03 µM (inactive) | 8.22 µM (inactive) | 11.1 µM (inactive) | 7.64 µM (inactive) | 11.7 µM (inactive) | 9.27 µM (inactive) | 2.73 µM (inactive) | 4.76 µM (inactive) | 7.33 µM (inactive) |  | 4.89 µM (inactive) | 11 µM (inactive) | 8.83 µM (inactive) | 21.1 µM (inactive) | 22.2 µM (inactive) | 13.6 µM (inactive) | 2.88 µM (inactive) | 12.5 µM (inactive) | 2.31 µM (inactive) | 1.12 µM (active)
C=C(C)C1CCC2(CO)C(O)CC3(C)C(CCC4C5(C)CCC(O)C(C)(C)C5CCC43C)C12 (centres undefined) | 3.82 µM (inactive) | 8.36 µM (inactive) | 16.5 µM (inactive) | 11.4 µM (inactive) | > 10 µM (inactive) | 50 µM (inactive) | 3.57 µM (inactive) | 6.01 µM (inactive) | 11.6 µM (inactive) | 10.9 µM (inactive) | 3.73 µM (inactive) | 7.74 µM (inactive) | 22.4 µM (inactive) | 9.77 µM (inactive) |  | 10.4 µM (inactive) | 42.8 µM (inactive) | 1.06 µM (active) | 11.7 µM (inactive) | 6.58 µM (inactive)
COc1cccc2c1C(=O)c1c(O)c3c(c(O)c1C2=O)CC(O)(C(O)CO)CC3OC1CC2C(OC3COCC(C#N)N32)C(C)O1 (centres undefined) | < 0.01 µM (active) | < 0.01 µM (active) | < 0.01 µM (active) | < 0.01 µM (active) | < 0.01 µM (active) | < 0.01 µM (active) | < 0.01 µM (active) | < 0.01 µM (active) | < 0.01 µM (active) | < 0.01 µM (active) |  | < 0.01 µM (active) | < 0.01 µM (active) | < 0.01 µM (active) |  | < 0.01 µM (active) | < 0.01 µM (active) | < 0.01 µM (active) | < 0.01 µM (active) | < 0.01 µM (active)
COc1ccc(-c2cc(=O)c3c(O)cc(C)cc3o2)cc1OC | > 100 µM (inactive) | > 100 µM (inactive) | > 100 µM (inactive) | > 100 µM (inactive) | > 100 µM (inactive) | > 100 µM (inactive) | > 100 µM (inactive) | > 100 µM (inactive) | > 100 µM (inactive) |  |  | > 100 µM (inactive) | > 100 µM (inactive) | > 100 µM (inactive) | > 100 µM (inactive) | > 100 µM (inactive) | > 100 µM (inactive) | > 100 µM (inactive) | > 100 µM (inactive) | > 100 µM (inactive)
COP(=O)(OC)OCN(C)CC/C=C(\C)CC/C=C(\C)CCC=C(C)C | 14.1 µM (inactive) | 16.4 µM (inactive) | 15.6 µM (inactive) | 15.3 µM (inactive) | 17.2 µM (inactive) | 10.4 µM (inactive) | 22.8 µM (inactive) | 7.57 µM (inactive) | 15.2 µM (inactive) | > 100 µM (inactive) | 17.6 µM (inactive) | 18.5 µM (inactive) | 11.8 µM (inactive) | 6.21 µM (inactive) | 10.6 µM (inactive) | 17.3 µM (inactive) |  | 16.4 µM (inactive) | 12.5 µM (inactive) | 13.4 µM (inactive)
COc1cc(C(c2cc3c(cc2O)OCO3)N2CCCC2)cc(OC)c1OC (centres undefined) | 14.8 µM (inactive) |  | 12.2 µM (inactive) | 17.7 µM (inactive) | 17.5 µM (inactive) | 1.79 µM (inactive) | 15.4 µM (inactive) | 17.3 µM (inactive) | 26.9 µM (inactive) | 21.4 µM (inactive) | 13.6 µM (inactive) | 13.4 µM (inactive) | 15.4 µM (inactive) | 4.37 µM (inactive) | 11.6 µM (inactive) | 23.3 µM (inactive) |  | 23.2 µM (inactive) | 12.4 µM (inactive) | 3.35 µM (inactive)
COCC1OC(Sc2ccccc2)C(O)C(OC)C1OC (centres undefined) | > 100 µM (inactive) | > 100 µM (inactive) | > 100 µM (inactive) | > 100 µM (inactive) | > 100 µM (inactive) | > 100 µM (inactive) and 52.4 µM (inactive) | > 100 µM (inactive) | > 100 µM (inactive) | > 100 µM (inactive) |  | > 100 µM (inactive) | > 100 µM (inactive) | > 100 µM (inactive) | > 100 µM (inactive) |  | > 100 µM (inactive) | > 100 µM (inactive) | > 100 µM (inactive) | > 100 µM (inactive) | > 100 µM (inactive)
O=C1CCCCCCCCCCC1CCCCCBr (centres undefined) | 26.1 µM (inactive) | 30.8 µM (inactive) | 22.3 µM (inactive) | 17.4 µM (inactive) | 24.4 µM (inactive) | 17 µM (inactive) | 27.4 µM (inactive) | 31.2 µM (inactive) | 37 µM (inactive) | 14.4 µM (inactive) | 31.2 µM (inactive) | 40.8 µM (inactive) | 17 µM (inactive) | 16.1 µM (inactive) |  | 19.9 µM (inactive) | 24.7 µM (inactive) | 24.2 µM (inactive) | 20.1 µM (inactive) | 19.6 µM (inactive)
O[C@@H]1C[C@@H]2N[C@@](O)(C[C@@H]2O)[C@H]1O | > 100 µM (inactive) | > 100 µM (inactive) | > 100 µM (inactive) | > 100 µM (inactive) | > 100 µM (inactive) | > 100 µM (inactive) | > 100 µM (inactive) | > 100 µM (inactive) | > 100 µM (inactive) | > 100 µM (inactive) |  | > 100 µM (inactive) | > 100 µM (inactive) | > 100 µM (inactive) | > 100 µM (inactive) | > 100 µM (inactive) | > 100 µM (inactive) | > 100 µM (inactive) | > 100 µM (inactive) | > 100 µM (inactive)
Nc1ccccc1C(=O)CCc1c[nH]c2ccccc12 | 5.4 µM (inactive) | 43.4 µM (inactive) | > 100 µM (inactive) | > 100 µM (inactive) |  |  | 53.7 µM (inactive) | > 100 µM (inactive) | > 100 µM (inactive) | > 100 µM (inactive) |  | > 100 µM (inactive) | > 100 µM (inactive) | > 100 µM (inactive) | > 100 µM (inactive) | > 100 µM (inactive) | > 100 µM (inactive) | 5.53 µM (inactive) | 35.7 µM (inactive) | > 100 µM (inactive)
CC1(C)C(=O)C2(C#N)CCC1C2 (centres undefined) | > 100 µM (inactive) | > 100 µM (inactive) | > 100 µM (inactive) | > 100 µM (inactive) | > 100 µM (inactive) | > 100 µM (inactive) | > 100 µM (inactive) | > 100 µM (inactive) | > 100 µM (inactive) | > 100 µM (inactive) | > 100 µM (inactive) | > 100 µM (inactive) | > 100 µM (inactive) | > 100 µM (inactive) | > 76.9 µM (inactive) | > 100 µM (inactive) |  | > 100 µM (inactive) | > 100 µM (inactive) | 
